Source: US10907214B2, “Methods for predicting drug responsiveness in cancer patients” (Oncology Venture ApS, priority 2016, dated 2021)

Tested on: patients having breast cancer
Assay: Clinical trial 2: retrospective analysis, breast cancer patients treated with cisplatin, stratified by biomarkers
Type: in vivo, human
Details: Trial 2, breast cancer, neoadj, N=24
Description: Table 5 below summarizes the results of these studies.

N.N.[Cl][Pt][Cl] [Cisplatin, cisplatin]
overall response rate (ORR) (patients predicted in bottom 10% of responsiveness): ORR 50% | overall response rate (ORR) (patients predicted in top 10% of responsiveness): ORR 100%
